Activity calls are given as the source filed them. The rule behind the calls is not given here.
Tested on: PBMC
Assay: Inhibition of LPS-stimulated TNF-alpha release in human PBMC at 600 ng/ml after 20 hrs by ELISPOT test
Assay type: functional, cell-based

Question: Which inhibition does the source give for `C[C@@H]1C[C@H]2[C@@H]3CCC4=CC(=O)C=C[C@]4(C)[C@@]3(F)[C@@H](O)C[C@]2(C)[C@@]1(O)C(=O)CO` here?
Answer: Active

— ChEMBL document CHEMBL3877318, “Cystatin C peptidomimetic derivative with antimicrobial properties as a potential compound against wound infections” (Bioorg Med Chem, 2017)
